Key:
SK-BR-3 = assay: MTT cytotoxicity assay, 72 hour incubation; format: cell-based; settings: Homo sapiens, 3 runs
Method: (§1) The cytotoxicity of compounds 26, 34, 50,58 and 68 were evaluated in a variety of cell lines using the standard MTT assay for a 72 hour incubation period (Table 1).
(§2) Tumor cell lines were maintained in RPMI1640 medium supplemented with 10% heat-inactivated fetal bovine serum, 2 mM L-glutamine and 1 mM sodium pyruvate. 1800 cells per well were seeded in a volume of 180 μl in a 96-well flat bottom polystyrene plate. The cells were allowed to adhere overnight at 37° C. in a CO2 incubator. Ligands were initially formulated in DMSO, and stocks stored at −80° C. They were then further formulated at lox concentration in RPMI1640 medium. 20 ul of diluted samples were added into each treatment well. On each plate, blank wells with no cells, and untreated wells containing cells, were included. Plates were then cultured at 37° C. in a CO2 incubator for 72 hrs. Cytotoxicity was evaluated using a tetrazolium salt-based assay, the MT assay. After 72 hours, the supernatant was removed from each well and 200 μl of a sterile filtered 500 μg/ml MT solution in water added to each well. The plates were then incubated at 37° C. in a CO2 incubator for 4 hrs. The supernatant was then removed and the formazan crystals formed solubilized by adding 150 μl of DMSO to each well. The plate was then read on a plate reader at 540 nm, and percentage cell survival calculated as follows: ((mean absorbance treated wells at concentration x—mean absorbance blank wells)÷(mean absorbance untreated wells at concentration x—mean absorbance blank wells))×100. Data were plotted as concentration in nM vs. % cell survival in Microsoft Excel, and IC50 values (concentration where cell survival is reduced by a half) were determined from the graph.

SW48 = assay: MTT cytotoxicity assay, 72 hour incubation; format: cell-based; settings: Homo sapiens, SW48, 3 runs
Method: as §1, §2

SW 620 = assay: MTT cytotoxicity assay, 72 hour incubation; format: cell-based; settings: Homo sapiens, SW-620, 3 runs
Method: as §1, §2

ZR 75-1 = assay: MTT cytotoxicity assay, 72 hour incubation; format: cell-based; settings: Homo sapiens, 3 runs
Method: as §1, §2

MCF-7 = assay: MTT cytotoxicity assay, 72 hour incubation; format: cell-based; settings: Homo sapiens, MCF7, 3 runs
Method: as §1, §2

[1] = system: fluorescently labelled DNA duplexes; assay: FRET DNA melting; format: binding
Method: FRET DNA Melting FRET DNA melting studies were undertaken on 26 and 34 using a number of fluorescently labelled sequences. The sequences (FIG. 10) were designed to provide additional evidence that 26 and 34 can form inter- and intrastrand cross-links at the site 5′-XYWWYWYX-3′.
The short duplexes used in this FRET study are relatively unstable in the duplex form with a melting temperature below 30° C. so that, in the absence of ligand, a large part of the melting occurs below the starting temperature of the experiment.
Oligonucleotides were obtained from ATDbio (Southampton, UK) in lyophilised form. They were labelled with a fluorophore molecule (F=fluorescein) at the 5′-end and a quencher molecule (Q=dabcyl) at the 3′-end of the complementary strand. Each oligonucleotide was dissolved in distilled H2O to form stock solutions of 100 μM. Working solutions of 5 μM were prepared by diluting the stock solution with distilled H2O.
The following buffers were used: 250 mM phosphate buffer pH 7.4 (consisting of sodium dihydrogen phosphate and sodium phosphate diluted in distilled H2O) and 5 M sodium chloride buffer. All buffers and distilled H2O were filtered through a […] filter prior to use.
The reaction mixture was comprised of 4 μL of 250 mM phosphate buffer (final concentration of 50 mM), 4 μL flourophor and 4 μL quencher molecule of the appropriate oligonucleotide for a final concentration of 0.2 μM, 4 μL 5 M sodium chloride (final concentration of 1 M NaCl), and 4 μL of distilled H2O. This mixture was heated in an Eppendorf tube at 90° C. for 1 min and slowly cooled down to room temperature. This process was carried out to anneal the single strands to double-stranded DNA. Following this, 4 μL of the ligand was added in the desired concentration and the mixture incubated overnight either at room temperature or 4° C. […] This mixture was analysed without prior annealing.
Fluorescence melting profiles were measured using a Roche LightCycler using a total reaction volume of 20 μL. […] Annealing steps and melting steps were all recorded and changes in fluorescence were measured at 520 nm. […]

## CNS(=O)(=O)c1ccc(C2=CCN3C(=O)c4cc(OC)c(OCc5cccc(COc6cc7c(cc6OC)C(=O)N6CC=C(c8ccc(S(=O)(=O)NC)cc8)C[C@H]6C=N7)n5)cc4N=C[C@@H]3C2)cc1 [Compound 34, 4,4′-((6aS,6a′S)-((Pyridine-2,6-diylbis(methylene))bis(oxy))bis(2-methoxy-12-oxo-6a,7,10,12-tetrahydrobenzo[e]pyrido[1,2-α][1,4]diazepine-3,8-diyl))bis(N-methylbenzenesulfonamide)]
SK-BR-3
  IC50: 0.041 nM
SW48
  IC50: 0.0077 nM
SW 620
  IC50: 0.325 nM
ZR 75-1
  IC50: 0.159 nM
MCF-7
  IC50: 0.057 nM
[1]; 5′-AAAAAAGAGAACAAAAAA-3′ (Seq 23), interstrand cross-link
  Tm of duplex with ligand: ~71 °C
[1]; 5′-AAAAAAGATCAAAAAA-3′ (Seq 12), traditional PBD binding site
  stabilisation of duplex: limited stabilisation
[1]; AAAAAAGAGAGAAAAAA-3′ (Seq 20), intrastrand cross-link
  Tm of duplex with ligand: 66 °C
